Legend:
[1] = biological target: T1, Serine/threonine-protein kinase Chk1 (Homo sapiens) (UniProt O14757); assay: Inhibition of CHK1 assessed as activity remaining at 10 uM
T1 sequence (whole entry): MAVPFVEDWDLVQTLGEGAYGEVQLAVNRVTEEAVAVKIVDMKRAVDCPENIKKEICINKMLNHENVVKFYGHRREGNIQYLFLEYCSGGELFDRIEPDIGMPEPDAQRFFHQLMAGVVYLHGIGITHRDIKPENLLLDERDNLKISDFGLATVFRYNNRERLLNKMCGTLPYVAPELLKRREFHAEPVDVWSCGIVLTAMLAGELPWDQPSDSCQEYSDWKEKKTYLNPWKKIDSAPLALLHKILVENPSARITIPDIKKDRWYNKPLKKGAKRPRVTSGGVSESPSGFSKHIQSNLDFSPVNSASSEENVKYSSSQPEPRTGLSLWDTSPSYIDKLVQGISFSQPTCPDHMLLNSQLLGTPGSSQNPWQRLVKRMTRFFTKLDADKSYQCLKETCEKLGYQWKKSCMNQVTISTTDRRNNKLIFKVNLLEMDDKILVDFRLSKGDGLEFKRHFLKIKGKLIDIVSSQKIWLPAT

[2] = biological target: T2, Ephrin type-B receptor 4 (Homo sapiens) (UniProt P54760); assay: Inhibition of EphB4 assessed as activity remaining at 10 uM
T2 sequence (whole entry): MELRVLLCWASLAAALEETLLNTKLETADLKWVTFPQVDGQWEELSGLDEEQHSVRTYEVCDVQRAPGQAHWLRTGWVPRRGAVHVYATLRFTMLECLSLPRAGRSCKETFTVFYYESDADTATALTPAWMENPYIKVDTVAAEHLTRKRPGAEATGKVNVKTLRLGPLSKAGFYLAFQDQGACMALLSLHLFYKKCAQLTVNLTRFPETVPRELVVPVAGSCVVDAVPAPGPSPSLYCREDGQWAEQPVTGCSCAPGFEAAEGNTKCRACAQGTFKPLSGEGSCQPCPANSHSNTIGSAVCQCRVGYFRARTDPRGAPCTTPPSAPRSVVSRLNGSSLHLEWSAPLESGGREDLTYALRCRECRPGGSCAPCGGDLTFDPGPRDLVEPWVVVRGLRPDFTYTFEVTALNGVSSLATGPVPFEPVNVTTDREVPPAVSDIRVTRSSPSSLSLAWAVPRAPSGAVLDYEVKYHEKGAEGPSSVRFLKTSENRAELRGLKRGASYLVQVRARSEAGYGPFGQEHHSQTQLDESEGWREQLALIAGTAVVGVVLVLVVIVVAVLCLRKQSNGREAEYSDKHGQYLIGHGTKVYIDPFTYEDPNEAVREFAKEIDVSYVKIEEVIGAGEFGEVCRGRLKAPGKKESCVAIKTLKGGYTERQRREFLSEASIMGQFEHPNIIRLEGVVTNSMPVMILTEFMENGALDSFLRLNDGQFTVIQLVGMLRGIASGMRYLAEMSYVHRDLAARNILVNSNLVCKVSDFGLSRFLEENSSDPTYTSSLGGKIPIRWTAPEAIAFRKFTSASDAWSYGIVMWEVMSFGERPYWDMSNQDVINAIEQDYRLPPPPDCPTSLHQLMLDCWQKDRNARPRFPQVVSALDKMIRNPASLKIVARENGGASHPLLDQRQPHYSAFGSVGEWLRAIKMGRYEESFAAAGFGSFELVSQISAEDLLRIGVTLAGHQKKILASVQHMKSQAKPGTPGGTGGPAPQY

[3] = biological target: T3, Inhibitor of nuclear factor kappa-B kinase subunit beta (Homo sapiens) (UniProt O14920); assay: Inhibition of IKK-beta assessed as activity remaining at 10 uM
T3 sequence (whole entry): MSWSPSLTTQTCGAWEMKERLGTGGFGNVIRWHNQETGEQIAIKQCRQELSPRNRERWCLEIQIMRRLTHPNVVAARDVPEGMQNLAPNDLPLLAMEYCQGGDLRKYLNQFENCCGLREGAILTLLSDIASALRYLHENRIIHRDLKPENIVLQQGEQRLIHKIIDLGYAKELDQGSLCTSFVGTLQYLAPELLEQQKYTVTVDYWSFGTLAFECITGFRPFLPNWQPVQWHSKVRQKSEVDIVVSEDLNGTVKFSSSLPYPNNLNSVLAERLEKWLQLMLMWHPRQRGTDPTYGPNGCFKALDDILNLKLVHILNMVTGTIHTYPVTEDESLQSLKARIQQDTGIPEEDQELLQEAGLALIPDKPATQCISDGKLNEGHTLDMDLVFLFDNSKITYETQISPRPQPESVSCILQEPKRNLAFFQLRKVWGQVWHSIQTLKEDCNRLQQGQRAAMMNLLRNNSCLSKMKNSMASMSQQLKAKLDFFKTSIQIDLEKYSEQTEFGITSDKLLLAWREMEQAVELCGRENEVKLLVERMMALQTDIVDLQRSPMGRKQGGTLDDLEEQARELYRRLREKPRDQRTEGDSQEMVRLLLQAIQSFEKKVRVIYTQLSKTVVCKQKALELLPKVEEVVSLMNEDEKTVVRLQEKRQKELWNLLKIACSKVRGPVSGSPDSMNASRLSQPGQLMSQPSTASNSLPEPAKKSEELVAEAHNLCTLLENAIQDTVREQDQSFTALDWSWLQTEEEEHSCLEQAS

[4] = biological target: MAP kinase-activated protein kinase 2 (Homo sapiens) (UniProt P49137); assay: Inhibition of MAPKAP-K2 assessed as activity remaining at 10 uM
MAP kinase-activated protein kinase 2 (Homo sapiens), sequence (P49137 whole entry, looked up): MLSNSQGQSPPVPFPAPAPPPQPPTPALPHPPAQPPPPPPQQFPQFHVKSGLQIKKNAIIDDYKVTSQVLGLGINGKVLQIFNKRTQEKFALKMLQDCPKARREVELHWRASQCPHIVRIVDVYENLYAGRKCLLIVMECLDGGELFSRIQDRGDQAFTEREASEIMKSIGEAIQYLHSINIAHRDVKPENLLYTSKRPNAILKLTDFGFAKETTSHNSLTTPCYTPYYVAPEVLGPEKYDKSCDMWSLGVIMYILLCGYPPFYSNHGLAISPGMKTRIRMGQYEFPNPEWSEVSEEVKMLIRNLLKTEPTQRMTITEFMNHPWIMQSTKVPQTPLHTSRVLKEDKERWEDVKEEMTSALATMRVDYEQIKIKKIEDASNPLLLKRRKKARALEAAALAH

[5] = biological target: Hepatocyte growth factor receptor (Homo sapiens) (UniProt P08581); assay: Inhibition of Met assessed as activity remaining at 10 uM
Hepatocyte growth factor receptor (Homo sapiens), sequence (P08581 whole entry): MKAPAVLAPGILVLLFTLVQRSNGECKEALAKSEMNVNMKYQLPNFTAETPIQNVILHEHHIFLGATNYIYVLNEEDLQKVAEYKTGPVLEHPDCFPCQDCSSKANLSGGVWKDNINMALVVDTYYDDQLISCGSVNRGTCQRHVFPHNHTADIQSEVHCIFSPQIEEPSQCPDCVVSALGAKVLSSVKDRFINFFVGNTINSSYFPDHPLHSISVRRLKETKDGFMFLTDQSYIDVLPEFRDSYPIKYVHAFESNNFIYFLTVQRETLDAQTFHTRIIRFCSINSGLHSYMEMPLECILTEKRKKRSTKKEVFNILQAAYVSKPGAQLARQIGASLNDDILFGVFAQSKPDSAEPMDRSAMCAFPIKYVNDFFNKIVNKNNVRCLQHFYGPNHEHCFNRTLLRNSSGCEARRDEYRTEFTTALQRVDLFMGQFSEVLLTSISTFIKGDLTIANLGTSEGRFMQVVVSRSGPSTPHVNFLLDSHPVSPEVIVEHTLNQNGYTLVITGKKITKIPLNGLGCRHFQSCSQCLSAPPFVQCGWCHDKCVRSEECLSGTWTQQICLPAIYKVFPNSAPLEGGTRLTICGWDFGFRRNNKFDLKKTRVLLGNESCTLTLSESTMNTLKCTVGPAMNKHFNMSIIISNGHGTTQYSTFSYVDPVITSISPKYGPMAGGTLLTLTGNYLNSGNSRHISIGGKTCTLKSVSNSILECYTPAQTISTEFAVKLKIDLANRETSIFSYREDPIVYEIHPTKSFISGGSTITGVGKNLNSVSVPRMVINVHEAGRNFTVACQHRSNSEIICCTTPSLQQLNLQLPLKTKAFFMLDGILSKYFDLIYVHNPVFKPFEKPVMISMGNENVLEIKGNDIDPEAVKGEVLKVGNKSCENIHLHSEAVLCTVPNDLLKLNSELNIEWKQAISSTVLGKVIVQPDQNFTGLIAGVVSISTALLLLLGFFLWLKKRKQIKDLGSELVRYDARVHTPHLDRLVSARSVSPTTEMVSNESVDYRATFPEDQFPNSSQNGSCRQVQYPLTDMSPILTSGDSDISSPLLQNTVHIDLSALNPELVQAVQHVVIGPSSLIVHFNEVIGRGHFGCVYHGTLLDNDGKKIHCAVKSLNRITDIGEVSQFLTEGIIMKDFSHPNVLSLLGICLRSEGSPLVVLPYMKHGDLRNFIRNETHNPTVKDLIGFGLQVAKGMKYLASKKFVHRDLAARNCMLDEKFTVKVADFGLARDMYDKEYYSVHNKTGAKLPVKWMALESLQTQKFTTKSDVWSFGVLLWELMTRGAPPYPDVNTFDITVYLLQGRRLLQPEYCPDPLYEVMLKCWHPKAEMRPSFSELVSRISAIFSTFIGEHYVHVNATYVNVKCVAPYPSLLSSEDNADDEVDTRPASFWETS

[6] = biological target: RAC-alpha serine/threonine-protein kinase (Homo sapiens) (UniProt P31749); assay: Inhibition of PKB-alpha assessed as activity remaining at 10 uM
RAC-alpha serine/threonine-protein kinase (Homo sapiens), sequence (P31749 whole entry): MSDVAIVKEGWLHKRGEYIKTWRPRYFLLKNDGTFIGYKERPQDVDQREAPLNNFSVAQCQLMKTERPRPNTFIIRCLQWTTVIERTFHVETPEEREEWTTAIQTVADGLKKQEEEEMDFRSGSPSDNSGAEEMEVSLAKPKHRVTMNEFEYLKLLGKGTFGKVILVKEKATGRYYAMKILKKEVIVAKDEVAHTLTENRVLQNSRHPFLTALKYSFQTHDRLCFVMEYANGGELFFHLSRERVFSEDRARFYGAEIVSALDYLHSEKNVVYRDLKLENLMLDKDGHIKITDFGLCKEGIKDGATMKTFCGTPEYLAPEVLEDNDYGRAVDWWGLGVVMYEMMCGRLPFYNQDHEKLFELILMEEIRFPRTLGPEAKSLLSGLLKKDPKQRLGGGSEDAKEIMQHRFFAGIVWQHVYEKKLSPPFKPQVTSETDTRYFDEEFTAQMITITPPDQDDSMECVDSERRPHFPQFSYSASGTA

[7] = biological target: Tyrosine-protein kinase Yes (Homo sapiens) (UniProt P07947); assay: Inhibition of Yes assessed as activity remaining at 10 uM
Tyrosine-protein kinase Yes (Homo sapiens), sequence (P07947 2-543 limits assumed): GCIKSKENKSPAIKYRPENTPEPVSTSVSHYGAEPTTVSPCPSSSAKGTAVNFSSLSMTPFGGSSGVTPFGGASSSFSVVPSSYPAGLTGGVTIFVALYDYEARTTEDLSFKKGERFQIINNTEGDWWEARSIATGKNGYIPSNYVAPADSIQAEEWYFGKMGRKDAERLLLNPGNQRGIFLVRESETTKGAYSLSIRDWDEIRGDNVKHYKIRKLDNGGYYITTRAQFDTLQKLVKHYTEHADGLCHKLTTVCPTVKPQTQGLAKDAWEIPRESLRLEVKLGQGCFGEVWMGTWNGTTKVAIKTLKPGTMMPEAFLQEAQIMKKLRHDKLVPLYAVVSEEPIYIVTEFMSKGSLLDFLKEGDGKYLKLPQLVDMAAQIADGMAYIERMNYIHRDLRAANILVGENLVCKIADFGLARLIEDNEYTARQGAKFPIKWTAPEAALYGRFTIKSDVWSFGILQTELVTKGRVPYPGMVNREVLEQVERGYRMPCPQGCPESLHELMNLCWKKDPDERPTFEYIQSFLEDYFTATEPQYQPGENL

[8] = biological target: Serine/threonine-protein kinase mTOR (Homo sapiens, UniProt P42345); assay: Inhibition of mTOR-mediated S6 phosphorylation in human PC3 cells; format: cell-based, PC-3
PC-3 = assay: Antiproliferative activity against human PC3 cells

Activity [1] [%] | Activity [2] [%] | Activity [3] [%] | Activity [4] [%] | Activity [5] [%] | Activity [6] [%] | Activity [7] [%] | IC50 [8] [µM] | IC50 (PC-3) [µM] | Compound
93 | 90 | 91 | 99 | 94 | 94 | 74 | 1.35 | 1.38 | CC(C)(O)c1ccc(-c2cnc3[nH]c(=O)n(CC4CCCCC4)c3n2)cc1
97 | 97 | 98 | 93 | 92 | 97 | 87 | 0.273 | 1.37 | O=c1[nH]c2ncc(-c3ccc(-c4nc[nH]n4)cc3)nc2n1CC1CCOCC1
88 | 96 | 82 | 89 | 66 | 92 | 73 | 0.427 | 1.16 | O=c1[nH]c2ncc(-c3ccc4[nH]cnc4c3)nc2n1CC1CCCCC1
